What was measured:
[1] = organism: Rattus norvegicus; assay: Percent inhibition of delayed neural death at concentration of 500 uM induced by glutamate and glycine in neocortical neurons of Wistar rat fetus; assay type: functional
[2] = target: Glutamate NMDA receptor; assay: Inhibition of [3H]MK-801 binding to NMDA receptor of adult Wistar rat brain cortical membranes; assay type: cell membranes, Membrane
[3] = organism: Rattus norvegicus; assay: Percent inhibition of delayed neural death at concentration of 50 uM induced by glutamate and glycine in neocortical neurons of Wistar rat fetus; assay type: functional
[4] = target: Glutamate NMDA receptor; assay: Inhibition of [3H]MK-801 binding to NMDA receptor of adult Wistar rat brain cortical membranes: Range 50-500; assay type: cell membranes, Membrane

IC50 [4]	Compound	Inhibition [1]	IC50 [2]	Inhibition [3]
	N[C@H](CC(=O)c1ccccn1)C(=O)O	60.3%	~300 µM	18.4%
< 500 µM	N[C@H](CC(=O)c1cccs1)C(=O)O			

From ChEMBL document CHEMBL1137027, “Stereoselective synthesis and preliminary evaluation of new D-3-heteroarylcarbonylalanines as ligands of the NMDA receptor” (Bioorg Med Chem Lett, 2004)
